We go through 6 compounds from patent US6008372A, “Substituted dinaphthylmethyl and diheteroarylmethylacetyl histidine inhibitors of protein farnesyltransferase” (Warner-Lambert Company, priority 1998, dated 1999).

Assay [1] has as its system Ras farnesylation in H-ras Me 12/+ cells. The assay can be described thus: Gel shift assay: inhibition of Ras farnesylation in H-ras Me 12/+ cells. Type of assay: cell-based. The conditions noted are these: 18-hour incubation, read-out: Inhibition of Ras Farnesylation (Minimum Effective Dose). How it is done: (§1) Twenty-four hours after planting 2×10^6 ras-transformed cells per treatment condition, the farnesylation inhibitor is added at varying concentrations. Following an 18-hour incubation period, cells are lysed in phosphate-buffered saline containing 1% Triton X-100, 0.5% sodium deoxycholate, and 0.1% SDS, pH 7.4 in the presence of several protease inhibitors (PMSF, antipain, leupeptin, pepstatin A, and aprotinin all at 1 μg/mL). Ras protein is immunoprecipitated from the supernatants by the addition of 3 μg v-H-ras Ab-2 (Y13-259 antibody from Oncogene Science). After overnight immunoprecipitation, 30 μL of a 50% protein G-Sepharose slurry (Pharmacia) is added followed by 45-minute incubation. Pellets are resuspended in 2× tris-glycine loading buffer (Novex) containing 5% B-mercaptoethanol and then denatured by 5 minutes boiling prior to electrophoresis on 14% Tris-glycine SDS gels. Using Western transfer techniques, proteins are transferred to nitrocellulose membranes followed by blocking in blocking buffer. Upon overnight incubation with primary antibody (pan-ras Ab-2 from Oncogene Science), an antimouse HRP conjugate secondary antibody (Amersham) is employed for detection of the ras protein. Blots are developed using ECL techniques (Amersham).
(§2) The data in Table 1 show farnesyl protein transferase inhibitory activity, and activity in the gel shift assay against ras protein of selected compounds of Formula I.

The target of assay [2] is T1, rat brain farnesyl protein transferase (Rattus norvegicus, UniProt Q02293+Q04631).
T1 construct: 40-fold purified rat brain farnesyl protein transferase; from tissue; host or cells: rat brain
The assay is described as follows: Protein:farnesyltransferase (PFT/FPT) inhibitory activity assay. The class given is biochemical.

Assay [3] relates to Ras farnesylation in H-ras-NIH3T3 cells. The assay is described as follows: Gel shift assay: inhibition of Ras farnesylation in H-ras-NIH3T3 cells. Type of assay: cell-based. The conditions noted are these: 18-hour incubation, read-out: Inhibition of Ras Farnesylation (Minimum Effective Dose). The procedure: as §1, §2
Assay [4] has as its system human lung carcinoma with a k-ras mutation. The note with it: nude mice; cited from earlier work.
[5] abbreviates: Hepes (without 5 mM phosphate), read-out: Farnesyl Protein Transferase Inhibition, Hepes, IC50.
Setting [6] is: Hepes/5 mM PO4^-3, pH 7.4, read-out: Farnesyl Protein Transferase Inhibition, Hepes/5 mM PO4^-3, IC50.

Read-outs that look alike come from different tables or passages of the source.

On to `CNC(=O)[C@H](Cc1c[nH]cn1)NC(=O)C(Cc1cccc2ccccc12)Cc1cccc2ccccc12` [Example 33, (S)-N-[2-(1H-Imidazol-4-yl)-1-methylcarbamoyl-ethyl]-3-naphthalen-1-yl-2-naphthalen-1-ylmethyl-propionamide], for which the minimal effective concentration in assay [1] and in assay [3] was 1 µM in each case. Moreover, the values for the IC50 in assay [2] (setting [5]) and in assay [2] (setting [6]) were 610 nM and 440 nM, respectively.
Regarding `CSCC[C@H](NC(=O)c1ccc(NC[C@@H](N)CS)cc1-c1ccccc1)C(=O)O` [FTI-276], the “blocks the growth of a human lung carcinoma with a k-ras mutation” value in assay [4] is “blocks the growth in nude mice of a human lung carcinoma with a k-ras mutation”.
As to `COC(=O)[C@H](Cc1c[nH]cn1)NC(=O)C(Cc1cccc2ccccc12)Cc1cccc2ccccc12` [Example 1, (S)-3-(1H-Imidazol-4-yl)-2-(3-naphthalen-1-yl-2-naphthalen-1-ylmethyl-propionylamino)-propionic acid, methyl ester], the minimal effective concentration in assay [1] came out at 2.5 µM; in assay [3] it was 5 µM. In addition, the figures for the IC50 in assay [2] (setting [5]) and in assay [2] (setting [6]) were 260 nM and 300 nM, respectively.
Take `CC(C)OC(=O)[C@H](Cc1c[nH]cn1)NC(=O)C(Cc1cccc2ccccc12)Cc1cccc2ccccc12` [Example 8, (S)-3-(1H-Imidazol-4-yl)-2-(3-naphthalen-1-yl-2-naphthalen-1-ylmethyl-propionylamino)-propionic acid, isopropyl ester]: the minimal effective concentration in assay [1] and in assay [3] was 5 µM each time. The IC50 in assay [2] (setting [5]) was determined as 180 nM; in assay [2] (setting [6]), 160 nM.
For the compound `COC(=O)[C@H](Cc1cncn1C)NC(=O)C(Cc1cccc2ccccc12)Cc1cccc2ccccc12` [Example 6, (S)-3-(3-Methyl-3H-imidazol-4-yl)-2-(3-naphthalen-1-yl-2-naphthalen-1-ylmethyl-propionylamino)-propionic acid, methyl ester], the figures for the minimal effective concentration in assay [1] and in assay [3] were 1 µM and 2.5 µM, respectively. Also, the IC50 in assay [2] (setting [5]) came to 420 nM; in assay [2] (setting [6]) it was 220 nM.
As to `CCCOC(=O)[C@H](Cc1c[nH]cn1)NC(=O)C(Cc1cccc2ccccc12)Cc1cccc2ccccc12` [Example 7, (S)-3-(1H-Imidazol-4-yl)-2-(3-naphthalen-1-yl-2-naphthalen-1-ylmethyl-propionylamino)-propionic acid, propyl ester], the minimal effective concentration in assay [1] turned out to be 5 µM. In addition, the IC50 in assay [2] (setting [5]) is 110 nM; in assay [2] (setting [6]), 100 nM.
